The record followed here is PubChem BioAssay AID1645848.

The conditions of this data set: buffer; pH 7.4; 6.0 h; 150.0 µM.

SMILES strings stand for the structures. ≈ marks a conversion by molar mass, not a printed value.

`O=S(=O)(Nc1nccs1)c1ccc(NCc2cccc(Cl)c2Cl)cc1`: the solubility (kinetic) was less than 1 µg/mL.
The compound `O=C(NCCc1ccccn1)C1CC(=O)N(c2n[nH]c3cc(Br)ccc23)C1` (centres undefined) had a solubility (kinetic) of 5.42 µg/mL (≈ 12.7 µM).
To `Cc1cc(SCC(=O)c2ccccc2)n2ncc(-c3ccccc3)c2n1` belongs less than 1 µg/mL.
With `O=C1C(c2ccc(C(F)(F)F)cc2)=C(Nc2ccc(Cl)cc2)c2ccccc21`, the solubility (kinetic) is less than 1 µg/mL.
The value for `Oc1ccc2[nH]cc(CCCCN3CC=C(c4ccccc4)CC3)c2c1` was 42.4 µg/mL (≈ 122 µM); that for `O=C1Nc2ccccc2/C1=C\c1ccc(C(=O)O)cc1` was more than 39 µg/mL; that for `NC(=O)C1CCN(c2nc(-c3cccc(F)c3)cs2)CC1` was more than 45 µg/mL.
For the compound `COC[C@@H]1CN(C(=O)c2n[nH]c3ccccc23)C[C@H]1c1nc(C)no1`, the solubility (kinetic) was more than 100 µg/mL.
Compound `C=C1c2cccc(O)c2C(O)=C2C(=O)[C@]3(O)C(O)=C(C(N)=O)C(=O)[C@@H](N(C)C)[C@@H]3[C@@H](O)[C@H]12` showed a solubility (kinetic) of more than 65 µg/mL.
To `CCc1cccc(NC(=O)c2c(C)oc3nc(C)nc(N4CCCC4)c23)c1` belongs 14.8 µg/mL (≈ 40.6 µM); to `COC(=O)c1ccnc(-c2cc(C(=O)Nc3ccc(C4(N)CC4)cc3)ccn2)c1`, 12.8 µg/mL (≈ 32.8 µM); to `CCOC(=O)N1CCN(Cc2nc3c(c(=O)n(C)c(=O)n3C)n2CCC(C)C)CC1`, more than 62 µg/mL.
To `Cc1ccc(OCCn2c(CCNC(=O)N3CCCCC3)nc3ccccc32)cc1` belongs 9.07 µg/mL (≈ 22.3 µM); to `COc1ccccc1N1CCN(c2ccc3cc(S(=O)(=O)N4CCCCC4)ccc3n2)CC1`, less than 1 µg/mL.
The value for `Cc1cc(C)nc(NC(=S)N2CCN(c3cc(C(F)(F)F)nc4ccc(C(F)(F)F)cc34)CC2)c1` was 12 µg/mL (≈ 23.4 µM).
`Cc1ccnc(NC(=S)N2CCN(c3ccc(C(F)(F)F)cc3)CC2)c1` showed a kinetic solubility of less than 1 µg/mL.
The value for `Cc1nn(CCc2nc(-c3ccc(OC(F)F)cc3)cs2)c2[nH]c(=O)cc(C(F)(F)F)c12` was less than 1 µg/mL; that for `O=S(=O)(Nc1ccc(-c2ccccc2)cc1)c1ccc(NCc2ccc(Br)cc2O)cc1` was less than 1 µg/mL.
To `CCOc1ccc(C2C(C(=O)Nc3ccccc3OC)=C(C)Nc3c(C(=O)Nc4cccc(C)c4)cnn32)cc1` (centres undefined) belongs less than 1 µg/mL.
To `Cc1ccc(-c2cc(C(=O)NCc3ccc(S(N)(=O)=O)cc3)c3ccccc3n2)cc1C` belongs less than 1 µg/mL; to `O=S(=O)(Nc1nccs1)c1ccc(Nc2nc(-c3ccc(F)cc3)cs2)cc1`, 2.36 µg/mL (≈ 5.46 µM).
On to `Cc1ccc(S(=O)(=O)Nc2cnccc2C(=O)Nc2nc(-c3ccc(Cl)c(Cl)c3)cs2)cc1`, for which the kinetic solubility turned out to be 0.578 µg/mL (≈ 1.11 µM). This solubility kinetic is about 4.1-fold lower than that of the compound before.
In turn, `Cc1ccc(C(=O)NC2CCN(c3cnn(CC4CC4)c(=O)c3)CC2)cc1C` registered a solubility (kinetic) of less than 1 µg/mL.
To `O=C(Nc1ccccc1C(=O)Nc1ccccc1C(=O)NCc1ccco1)c1ccco1` belongs 4.45 µg/mL (≈ 10.4 µM).
The value for `COc1ccc(S(=O)(=O)N(C(=O)C(C)C)c2ccc3oc(=O)sc3c2)cc1` was 8.8 µg/mL (≈ 21.6 µM); that for `CCOc1ccc(/C=C/c2nc3ccccc3n2S(=O)(=O)c2ccc(Br)cc2)cc1` was 0.131 µg/mL (≈ 0.271 µM).
As to `O=C(c1ccccc1)N1CCC(C(=O)N2CCC(N3Cc4ccccc4C3=O)CC2)CC1`, the kinetic solubility was more than 43 µg/mL.
To `Oc1ccc(CNc2cccnc2)c2cccnc12` belongs 24.5 µg/mL (≈ 97.5 µM); to `CCOc1ccc(CCNC(=O)c2cc3sccc3n2Cc2ccc(F)cc2F)cc1OCC`, less than 1 µg/mL; to `Cc1cccc(-n2cnc3cc(C(=O)N4CCCC(C)(C)C4)ccc32)c1`, 37.7 µg/mL (≈ 109 µM).
To `CC1=C(C(=O)NCc2ccccc2)C(c2ccccc2Br)N=C(Nc2nc3ccccc3o2)N1` (centres undefined) belongs less than 1 µg/mL.
To `O=C(c1cnc(N2CCCCC2)c2ccccc12)N1CCN(c2ccc(Cl)cc2)CC1` belongs less than 1 µg/mL; to `CN(C)CCNC(=O)c1nc2nc(-c3ccccc3)c(-c3cccc(Cl)c3)cc2n1C`, 66.8 µg/mL (≈ 154 µM).
In the case of `CCCC1=Nc2cc(C(=O)NC3CCCC3)ccc2Sc2ccc(C)cc21`, the kinetic solubility was less than 1 µg/mL.
The value for `CCC(CC)c1cc([C@H]2CN3CC[C@H]2C[C@@H]3CNC(=O)COc2ccccc2)nc(-c2ccncc2)n1` was more than 74 µg/mL; that for `Fc1cc(Nc2nc(-c3ccncc3)nc3ccccc23)ccc1-c1ccnc(C(F)(F)F)c1` was less than 1 µg/mL.
To `Cc1ccc(S(=O)(=O)Nc2ccc(Cl)c(C(=O)Nc3nc(-c4ccccc4)cs3)c2)cc1` belongs less than 1 µg/mL; to `CC[C@@H](CO)NC(=O)[C@@H]1C=C2c3cccc4c3c(cn4C)C[C@H]2N(C)C1`, more than 52 µg/mL; to `c1ccc(CNc2cc3c(cn2)CN(Cc2cccnc2)CCN3)cc1`, 36.5 µg/mL (≈ 106 µM).
In turn, `O=[N+]([O-])c1cccnc1N/N=C/c1ccccc1O` showed a solubility (kinetic) of less than 1 µg/mL.
With `Cc1sc(NC(=O)Cc2ccc3c(c2)OCO3)nc1-c1ccc2c(c1)CCN2C(=O)C1CCCCC1`, the solubility (kinetic) is less than 1 µg/mL.
To `OC(CCN1CCCCC1)c1ccc(-c2ccccc2)cc1` (centres undefined) belongs more than 44 µg/mL; to `CCOc1ccc(CCNC(=O)c2cc3ccccc3n2CCN2CCOCC2)cc1OCC`, 47.5 µg/mL (≈ 102 µM); to `CC(=O)c1c(C)[nH]c(C(=O)Nc2cccc([S+](=O)([O-])N3CC[C@@H](F)C3)c2)c1C`, 23.3 µg/mL (≈ 57.1 µM).
The value for `CCOc1ccc(/C=C/c2nc3ccccc3n2S(=O)(=O)c2cccc(Cl)c2)cc1` was 0.035 µg/mL (≈ 0.0797 µM).
For the compound `CC(=O)c1ccc(-c2csc(N3CCC(C(N)=O)CC3)n2)cc1`, the kinetic solubility turned out to be 6.11 µg/mL (≈ 18.6 µM).
For the compound `CCn1nc(C2CCN(C(=O)CCO)CC2)nc1-c1cnc(N)c(-c2nnc(C(C)(C)C)o2)n1`, the kinetic solubility is more than 69 µg/mL.
The value for `COc1cc(NC(=O)c2cc(-c3ccccc3O)no2)cc(OC)c1OC` was 1.09 µg/mL (≈ 2.93 µM); that for `Fc1ccc(CN2CCNc3cc(Nc4ccccc4)ncc3C2)cc1F` was 45.3 µg/mL (≈ 124 µM); that for `NC(CO)(CO)CCc1ccc(Sc2cccc(OCc3ccccc3)c2)cc1Cl` was less than 1 µg/mL.
`Cc1ccc(SC2=NS(=O)(=O)c3ccccc32)c(C)c1` gave a solubility (kinetic) of less than 1 µg/mL.
The value for `CC#CC(=O)N1CCC[C@H]1c1nc(-c2ccc(C(=O)Nc3ccccn3)cc2)c2c(N)nccn12` was more than 69 µg/mL; that for `CCNC(=O)c1coc(COc2ccc3c(c2)C(c2ccc(F)cc2)N(C(=O)CC(C)C)CC3)n1` (centres undefined) was 3.8 µg/mL (≈ 7.92 µM); that for `CC(=O)Nc1ccc(-c2csc(N3CCC(C(N)=O)CC3)n2)cc1` was more than 51 µg/mL.
The compound `COc1ccc(NS(=O)(=O)c2ccc(C)cc2)cc1C(=O)Nc1nc(-c2ccccc2)cs1` registered a solubility (kinetic) of less than 1 µg/mL.
`Cc1nc2ccc(NC(=O)c3cc(S(=O)(=O)N(C)c4ccccc4)ccc3Cl)cc2s1` had a solubility (kinetic) of less than 1 µg/mL.
To `CC[C@H](NC(=O)[C@H](C)NC)C(=O)N1C[C@@H](O)C[C@H]1Cc1c(-c2[nH]c3cc(F)ccc3c2C[C@@H]2C[C@H](O)CN2C(=O)[C@H](CC)NC(=O)[C@H](C)NC)[nH]c2cc(F)ccc12` belongs 75.2 µg/mL (≈ 93.2 µM).
The value for `CC1=C(C(=O)Nc2ccccc2)C(c2ccccc2Cl)N=C(Nc2nc3ccccc3o2)N1` (centres undefined) was less than 1 µg/mL.
In turn, `Cc1cccc(C)c1C(=O)Nc1cccc([S+](=O)([O-])N2CCCCCC2)c1` registered a kinetic solubility of 2.03 µg/mL (≈ 5.26 µM).
The value for `COc1ccc(-c2ccc3ncc4c(c3c2)n(-c2ccc(N3CCNCC3)c(C(F)(F)F)c2)c(=O)n4C)cn1` was less than 1 µg/mL.
To `Cc1ccc(S(=O)(=O)Nc2cnccc2C(=O)Nc2nc(-c3cc4ccccc4o3)cs2)cc1` belongs 0.521 µg/mL (≈ 1.06 µM).
`NC(=O)C1CCN(c2nc(-c3ccccc3[N+](=O)[O-])cs2)CC1` yielded a solubility (kinetic) of more than 49 µg/mL.
The value for `Nc1c(-c2ccccc2)cnc2c(-c3ccccc3)cnn12` was less than 1 µg/mL; that for `CCOC(=O)N1CCc2c(sc(NCc3ccc(N(C)C)cc3)c2C(=O)Nc2ccc(OC)cc2)C1` was 2 µg/mL (≈ 3.93 µM).
To `O=C(Nc1ncc(Cc2ccc(C(F)(F)F)cc2)s1)c1cn(-c2ccccc2)cn1` belongs less than 1 µg/mL.
The value for `Cc1nn(CCc2nc(-c3ccccc3F)cs2)c2[nH]c(=O)cc(C(F)(F)F)c12` was less than 1 µg/mL.
The compound `Cn1nnnc1Sc1ncnc2sccc12` returned a kinetic solubility of more than 37 µg/mL.
The value for `CC(C)N(CCC(=O)c1ccc2ccccc2c1)Cc1ccccc1` was 13.4 µg/mL (≈ 40.3 µM); that for `O=C(NCCc1ccccc1)C1CCN(c2nc(-c3ccc(Br)cc3)cs2)CC1` was 4.49 µg/mL (≈ 9.54 µM).
To `Cc1ccc(S(=O)(=O)Nc2cccc(C(=O)Nc3nc(-c4ccccc4)cs3)c2)cc1` belongs less than 1 µg/mL; to `CC(C)CC(C)NC(=O)c1noc(-c2ccc[nH]c2=O)n1` (centres undefined), more than 43 µg/mL.
The value for `COc1ccc(-n2nc(C)c([C@@H]3C=C[C@@H](NCc4ccc(N(C)C)cc4)C3)c2C)cc1` was 50.3 µg/mL (≈ 121 µM); that for `Cc1cc(-c2cc3c(nc2-c2ccccc2)nc(C(=O)NCCN(C)C)n3C)ccn1` was 54.5 µg/mL (≈ 132 µM).
In the case of `Cn1cc(S(=O)(=O)N2CCOCC2)cc1C(=O)Nc1ccc(Cl)c(C(F)(F)F)c1`, the kinetic solubility is less than 1 µg/mL.
To `COc1ccc(CN2CCc3nc(N4CCN(c5ccc(F)cc5)CC4)ncc3C2)c(OC)c1OC` belongs less than 1 µg/mL; to `CC1=C(C(=O)Nc2ccc(Cl)cc2)C(c2ccccc2C)n2ncc(C(=O)Nc3ccc(C)cc3)c2N1` (centres undefined), less than 1 µg/mL; to `CCOC(=O)c1csc(NC(=O)c2ccncc2NS(=O)(=O)c2ccc(C)cc2)n1`, 3.2 µg/mL (≈ 7.16 µM).
The value for `COc1ccc(-c2cn[nH]c2-c2ccc(OC)cc2)cc1` was 4.26 µg/mL (≈ 15.2 µM); that for `Cc1ccc(NC(=O)N(Cc2cn(C)c3ccccc23)C2CCCCC2)cc1C` was 2.37 µg/mL (≈ 6.08 µM); that for `O=C(c1cc2ccccc2[nH]1)N1CCc2c(n(Cc3cccnc3)n(CCc3ccccc3)c2=O)C1` was more than 47 µg/mL.
To `O=C(Nc1ncc(-c2ccccc2)s1)c1ccc(-c2cccc([N+](=O)[O-])c2)o1` belongs less than 1 µg/mL; to `O=S(=O)(c1ccc2ccccc2c1)N1CCN(c2nc(-c3cccs3)nc3ccccc23)CC1`, less than 1 µg/mL.
Take `O=S(=O)(c1ccccc1)c1nnn2c1nc(NCc1cccs1)c1sccc12`: the solubility (kinetic) is less than 1 µg/mL.
To `CCCCOc1ccccc1C(=O)Nc1ccccc1C(=O)Nc1cccc(S(=O)(=O)C(F)(F)F)c1` belongs less than 1 µg/mL.

As a reminder, the kinetic solubility is solubility judged after dilution from a stock solution rather than from solid.
